Values of other authors as cited in patent US20150335678A1, “METHOD OF ACTIVATING STEM CELLS IN AN ANIMAL AND THE USE OF CHLORINE DIOXIDE FOR PREPARING MEDICINES FOR ACTIVATING STEM CELLS IN AN ANIMAL” (priority 2012, published 2015).
Like-named read-outs stand apart in the source and are kept apart here.

Legend:
rat = conditions: cited from earlier work
mouse = mouse per os; cited from earlier work

What does the source list for `[Na+].[O-][Cl+][O-]` [NaClO2]?
accumulative toxicity classification of aqueous solution (rat; rat, in vivo): non-obvious accumulative toxic; toxicity classification of aqueous solution (rat; rat, in vivo): actually non-toxic

For `[Na+].[O-][Cl+2]([O-])[O-]` [NaClO3], which “accumulative toxicity classification of aqueous solution” value (rat; ClO2 276.5 mg/L, NaClO2 200 mg/L, NaClO3) is on record?
Its value is “non-obvious accumulative toxic”.

What about the “toxicity classification of aqueous solution” value (rat; ClO2 276.5 mg/L, NaClO2 and NaClO3 200 mg/L, ClO2 mixed solution total concentration 553 mg/L) of the same compound?
The value was “actually non-toxic”.

With stable chlorine dioxide as the compound, how does the LD50 (mouse) read?
The LD50 was greater than 10000 mg/kg.
